Measurements from paper PMC6882824, “Engineering of chimeric peptides as antagonists for the G protein-coupled receptor, RXFP4” (Scientific Reports, 2019).
“Also recorded” adds a separate entry of the source.

Tests used:
[1] = target: T1, RXFP3 (Homo sapiens, UniProt Q9NSD7); experiment: Competition binding in CHO-K1-RXFP3 cells (Eu-H3B1-22R); conditions: SEM
T1 construct: expressed in transfected cells; host or cells: CHO-K1 (ATCC), stably transfected
T1 sequence (Q9NSD7 1-469): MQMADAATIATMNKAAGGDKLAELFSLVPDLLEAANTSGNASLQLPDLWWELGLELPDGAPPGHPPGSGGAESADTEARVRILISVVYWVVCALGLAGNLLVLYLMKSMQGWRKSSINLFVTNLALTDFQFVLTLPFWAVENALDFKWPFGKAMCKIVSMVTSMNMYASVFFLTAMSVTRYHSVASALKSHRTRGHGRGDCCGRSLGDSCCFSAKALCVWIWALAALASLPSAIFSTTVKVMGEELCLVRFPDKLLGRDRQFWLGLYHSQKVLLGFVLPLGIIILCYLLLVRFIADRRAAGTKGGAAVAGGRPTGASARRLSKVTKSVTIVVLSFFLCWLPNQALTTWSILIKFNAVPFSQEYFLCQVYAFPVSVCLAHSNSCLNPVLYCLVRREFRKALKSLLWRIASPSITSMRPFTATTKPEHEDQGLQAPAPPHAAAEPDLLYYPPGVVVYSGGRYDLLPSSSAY
In short: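 Whole CHO-K1 cells stably expressing RXFP3 or RXFP4 were competed against 5 nM Eu-H3B1-22R (RXFP3) or 5 nM Eu-DTPA-mINSL5 (RXFP4), with europium time-resolved fluorescence as read-out. Specific binding fitted to one-site curves; triplicates, at least three independent experiments.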

[2] = target: T1, RXFP3; experiment: cAMP agonist assay (inhibition of forskolin-induced cAMP, pCRE β-galactosidase reporter) in CHO-K1-RXFP3 cells; format: cell-based; conditions: CHO-K1-RXFP3 cells, inhibition of 5 µM forskolin-induced cAMP, 6 hours; mean ± SEM, n in cell
In short: (§1)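 Transfected cells stimulated with forskolin (5 µM RXFP3, 1 µM RXFP4); agonist mode ±peptide for 6 h, expressed as % forskolin activity, with 0% set by 1 µM reference agonist. Antagonist mode: peptide for 10 min, then ~EC80 agonist for 6 h. Triplicates, ≥3 independent experiments, mean ± SEM.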

[3] = target: T1, RXFP3; experiment: cAMP antagonist assay against 10 nM analogue 2 in CHO-K1-RXFP3 cells; format: cell-based
In short: as §1

[4] = tested on: RXFP3; conditions: SK-N-MC/CRE-β-gal cells expressing human RXFP3; cited from earlier work
From the text: Here we have chemically synthesized and pharmacologically characterized ΔR3/I5 for binding and cAMP potency in CHO cells stably expressing RXFP3 (CHO-RXFP3) or RXFP4 (CHO-RXFP4).

[5] = target: T1, RXFP3; conditions: cited from earlier work
[6] = tested on: RXFP3; conditions: HEK-293s cells expressing rat and human RXFP3; cited from earlier work
[7] = target: T1, RXFP3; conditions: CRE-reporter gene assay; cited from earlier work
[8] = target: T2, RXFP4 (Homo sapiens, UniProt Q8TDU9); design: expressed in transfected cells; method as in PMID 17606621; conditions: SK-N-MC/CRE-β-gal cells expressing human RXFP4; cited from earlier work
T2 sequence (Q8TDU9 whole entry): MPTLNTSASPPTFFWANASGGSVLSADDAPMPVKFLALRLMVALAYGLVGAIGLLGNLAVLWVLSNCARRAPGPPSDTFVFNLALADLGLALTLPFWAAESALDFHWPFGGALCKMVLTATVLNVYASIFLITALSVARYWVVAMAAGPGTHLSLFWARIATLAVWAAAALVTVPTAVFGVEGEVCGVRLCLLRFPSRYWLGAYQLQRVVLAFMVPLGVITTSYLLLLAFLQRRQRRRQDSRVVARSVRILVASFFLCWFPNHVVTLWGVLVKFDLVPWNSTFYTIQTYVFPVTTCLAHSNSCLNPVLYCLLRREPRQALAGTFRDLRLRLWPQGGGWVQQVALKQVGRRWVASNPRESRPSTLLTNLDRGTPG

[9] = target: T2, RXFP4; experiment: Competition binding in CHO-K1-RXFP4 cells (Eu-DTPA-mINSL5); design: expressed in transfected cells; host or cells: CHO-K1 (ATCC), stably transfected; conditions: SEM
[10] = target: T2, RXFP4; experiment: cAMP agonist assay (inhibition of forskolin-induced cAMP, pCRE β-galactosidase reporter) in CHO-K1-RXFP4 cells; format: cell-based; design: expressed in transfected cells; host or cells: CHO-K1 (ATCC), stably transfected; conditions: CHO-K1-RXFP4 cells, inhibition of 1 µM forskolin-induced cAMP, 6 hours; mean ± SEM, n in cell
[11] = target: T2, RXFP4; experiment: cAMP antagonist assay against 16.6 nM analogue 13 in CHO-K1-RXFP4 cells; format: cell-based; design: expressed in transfected cells; host or cells: CHO-K1 (ATCC), stably transfected
In short: as §1

CC[C@H](C)[C@@H]1NC(=O)[C@H](Cc2ccccc2)NC(=O)[C@H](CCC(=O)O)NC(=O)[C@H](CCCNC(=N)N)NC(=O)CNC(=O)[C@@H](NC(=O)[C@H](CC(C)C)NC(=O)[C@H](CCCNC(=N)N)NC(=O)[C@@H](NC(=O)CNC(=O)[C@H](Cc2ccc(O)cc2)NC(=O)[C@@H]2CCCN2C(=O)[C@H](C)NC(=O)[C@H](C)NC(=O)[C@@H](N)CCCNC(=N)N)C(C)C)CSSC[C@@H]2NC(=O)[C@@H](NC(=O)[C@H](CC(C)C)NC(=O)[C@@H](NC(=O)[C@H](CCC(N)=O)NC(=O)[C@H](CC(C)C)NC(=O)[C@H](CC(=O)O)NC(=O)[C@@H]3CCC(=O)N3)[C@@H](C)O)CSSC[C@H](NC(=O)CNC(=O)[C@H](CC(=O)O)NC(=O)[C@H]([C@@H](C)O)NC2=O)C(=O)N[C@@H](CO)C(=O)N[C@@H](CCSC)C(=O)N[C@@H]([C@@H](C)O)C(=O)N[C@@H](CC(=O)O)C(=O)N[C@@H](CC(C)C)C(=O)N[C@@H](CO)C(=O)N[C@@H](C)C(=O)N[C@@H](CC(C)C)C(=O)N[C@H](C(=O)O)CSSC[C@@H](C(=O)N[C@@H](CCCNC(=N)N)C(=O)O)NC(=O)[C@H]([C@@H](C)O)NC(=O)[C@H](Cc2ccccc2)NC(=O)[C@H]([C@@H](C)CC)NC(=O)[C@H](C(C)C)NC(=O)[C@H](C)NC(=O)[C@H](CCCNC(=N)N)NC1=O [ΔR3/I5, reference compound]
Ki [1]: 9.77 nM | RXFP3 Activity pEC50 [2]: unable to activate RXFP3; also recorded: No activity (3) | IC50 [3]: 117 nM | Emax ([3]; SEM, read-out: RXFP3 Emax (antagonist efficacy)): 100 ± 3.8% | Agonist activity at RXFP3 (original report) [4]: no agonist activity | Agonism of p38MAPK, ERK1/2 and cAMP signalling at RXFP3 [5]: weak partial agonist | Agonism in [35S]-GTPγS binding, cAMP activation and dynamic mass redistribution [6]: partial agonist | Agonist activity in CHO-RXFP3 cells [7]: no agonist activity | Agonist activity at RXFP4 (original report) [8]: no agonist activity | Ki [9]: 4.57 nM | RXFP4 Activity pEC50 [10]: Weak partial agonist (5) | IC50 [11]: 17.4 nM | Emax ([11]; SEM, read-out: RXFP4 Emax (antagonist efficacy)): 36.7 ± 7.4%
